According to paper PMC10041525, “New Dual Inhibitors of Bacterial Topoisomerases with Broad-Spectrum Antibacterial Activity and In Vivo Efficacy against Vancomycin-Intermediate Staphylococcus aureus” (Journal of Medicinal Chemistry, 2023):
Converted amounts (≈) assume the structure as drawn. “And” between values parts separate entries of the source, which are not always exact repeats. Identical values can stand only once. Like-named read-outs stand apart in the source and are kept apart here.

Assays:
Type in all cases: cell-based
[1] = test system: 100 A. baumannii strains (50 MDR, 50 non-MDR); assay: MIC broth microdilution at IHMA Europe, panel of 100 strains; settings: for MIC / MIC50 / MIC90: Acinetobacter baumannii; for MIC50: read-out: MIC 50; for MIC90: read-out: MIC 90
[2] = test system: E. faecium (n = 13); assay: MIC broth microdilution at IHMA Europe; settings: for MIC: Enterococcus faecium, read-out: MIC
[3] = test system: Neisseria gonorrhoeae (n = 12); assay: MIC broth microdilution at IHMA Europe; settings: for MIC: Neisseria gonorrhoeae, read-out: MIC
[4] = test system: S. pneumoniae ATCC 49619; assay: IHMA QC MIC
Description: Supplement jm2c01905_si_004.xlsx, sheet "QC" | column: MIC [µg/mL]

`Cc1[nH]c(C(=O)Nc2nc3c(N4[C@@H]5CC[C@H]4COC5)cc(C(=O)O)cc3s2)c(Cl)c1Cl` [7h, 4-((1R,5S)-3-Oxa-8-azabicyclo[3.2.1]octan-8-yl)-2-(3,4-dichloro-5-methyl-1H-pyrrole-2-carboxamido)benzo[d]thiazole-6-carboxylic Acid] was tested, and the MIC ([1]; A. baumannii IHMA 2180134, Malaysia 2020, Non-MDR, read-out: MIC) was 2 mg/L (≈ 4.15 µM), the MIC ([1]; A. baumannii IHMA 2180142, Malaysia 2020, MDR, read-out: MIC) was 2 mg/L (≈ 4.15 µM) and the MIC ([1]; A. baumannii IHMA 2181370, Morocco 2020, MDR, read-out: MIC) was 2 mg/L (≈ 4.15 µM). For the same molecule, the MIC ([1]; A. baumannii IHMA 2183729, Argentina 2020, MDR, read-out: MIC) was 4 mg/L (≈ 8.31 µM), the MIC ([1]; A. baumannii IHMA 2183849, Argentina 2020, Non-MDR, read-out: MIC) was 2 mg/L (≈ 4.15 µM) and the MIC ([1]; A. baumannii IHMA 2184382, Japan 2020, Non-MDR, read-out: MIC) was 2 mg/L (≈ 4.15 µM). The MIC ([1]; A. baumannii IHMA 2193375, Venezuela 2020, MDR, read-out: MIC) was 2 mg/L (≈ 4.15 µM), the MIC ([1]; A. baumannii IHMA 2193485, Venezuela 2020, Non-MDR, read-out: MIC) was 1 mg/L (≈ 2.08 µM) and the MIC ([1]; A. baumannii IHMA 2193607, Venezuela 2020, MDR, read-out: MIC) was 2 mg/L (≈ 4.15 µM). It also gave an MIC ([1]; A. baumannii IHMA 2195460, Italy 2020, MDR, read-out: MIC) of 2 mg/L (≈ 4.15 µM), an MIC ([1]; A. baumannii IHMA 2196914, South Africa 2020, MDR, read-out: MIC) of 2 mg/L (≈ 4.15 µM) and an MIC ([1]; A. baumannii IHMA 2196959, South Africa 2020, MDR, read-out: MIC) of 2 mg/L (≈ 4.15 µM). The MIC ([1]; A. baumannii IHMA 2203763, Spain 2020, MDR, read-out: MIC) was 4 mg/L (≈ 8.31 µM), the MIC ([1]; A. baumannii IHMA 2205144, Korea, South 2020, MDR, read-out: MIC) was 2 mg/L (≈ 4.15 µM) and the MIC ([1]; A. baumannii IHMA 2206459, Taiwan 2020, MDR, read-out: MIC) was 2 mg/L (≈ 4.15 µM). For the same molecule, the MIC ([1]; A. baumannii IHMA 2206507, Taiwan 2020, Non-MDR, read-out: MIC) was 1 mg/L (≈ 2.08 µM), the MIC ([1]; A. baumannii IHMA 2212575, Hungary 2020, Non-MDR, read-out: MIC) was 4 mg/L (≈ 8.31 µM) and the MIC ([1]; A. baumannii IHMA 2215307, Hong Kong 2020, Non-MDR, read-out: MIC) was 2 mg/L (≈ 4.15 µM). It also gave an MIC ([1]; A. baumannii IHMA 2216586, Taiwan 2020, MDR, read-out: MIC) of 2 mg/L (≈ 4.15 µM), an MIC ([1]; A. baumannii IHMA 2223200, Colombia 2020, Non-MDR, read-out: MIC) of 2 mg/L (≈ 4.15 µM) and an MIC ([1]; A. baumannii IHMA 2224017, Panama 2020, MDR, read-out: MIC) of 4 mg/L (≈ 8.31 µM). For the same molecule, the MIC ([1]; A. baumannii IHMA 2224303, Panama 2020, Non-MDR, read-out: MIC) was 4 mg/L (≈ 8.31 µM), the MIC ([1]; A. baumannii IHMA 2231797, Greece 2020, MDR, read-out: MIC) was 2 mg/L (≈ 4.15 µM) and the MIC ([1]; A. baumannii IHMA 2233099, Guatemala 2020, MDR, read-out: MIC) was 4 mg/L (≈ 8.31 µM). The MIC ([1]; A. baumannii IHMA 2233430, Kazakhstan 2020, MDR, read-out: MIC) was 2 mg/L (≈ 4.15 µM), the MIC ([1]; A. baumannii IHMA 2233548, Kazakhstan 2020, Non-MDR, read-out: MIC) was 4 mg/L (≈ 8.31 µM) and the MIC ([1]; A. baumannii IHMA 2238964, Thailand 2020, MDR, read-out: MIC) was 4 mg/L (≈ 8.31 µM). The MIC ([1]; A. baumannii IHMA 2239052, Thailand 2020, Non-MDR, read-out: MIC) was 4 mg/L (≈ 8.31 µM), the MIC ([1]; A. baumannii IHMA 2261047, Belgium 2020, MDR, read-out: MIC) was 4 mg/L (≈ 8.31 µM) and the MIC ([1]; A. baumannii IHMA 2261633, Canada 2020, Non-MDR, read-out: MIC) was 4 mg/L (≈ 8.31 µM). The MIC ([1]; A. baumannii IHMA 2274234, South Africa 2020, MDR, read-out: MIC) was 2 mg/L (≈ 4.15 µM), the MIC ([1]; A. baumannii IHMA 2274364, South Africa 2020, MDR, read-out: MIC) was 2 mg/L (≈ 4.15 µM) and the MIC ([1]; A. baumannii IHMA 2275237, Chile 2020, Non-MDR, read-out: MIC) was 2 mg/L (≈ 4.15 µM). For the same molecule, the MIC ([1]; A. baumannii IHMA 2275751, Jordan 2020, MDR, read-out: MIC) was 2 mg/L (≈ 4.15 µM), the MIC ([1]; A. baumannii IHMA 2316205, United States 2020, MDR, read-out: MIC) was 2 mg/L (≈ 4.15 µM) and the MIC ([1]; MDR n = 50, read-out: MAX (maximum MIC; all strains inhibited)) was 4 mg/L (≈ 8.31 µM). It also gave an MIC50 ([1]; MDR n = 50) of 2 mg/L (≈ 4.15 µM), an MIC90 ([1]; MDR n = 50) of 4 mg/L (≈ 8.31 µM) and an MIC ([1]; MDR n = 50, read-out: MIN (minimum MIC)) of 1 mg/L (≈ 2.08 µM). It also gave an MIC ([1]; all isolates n = 100, read-out: MAX (maximum MIC; all strains inhibited)) of 8 mg/L (≈ 16.6 µM), an MIC50 ([1]; all isolates n = 100) of 2 mg/L (≈ 4.15 µM) and an MIC90 ([1]; all isolates n = 100) of 4 mg/L (≈ 8.31 µM). For the same molecule, the MIC ([1]; all isolates n = 100, read-out: MIN (minimum MIC)) was 1 mg/L (≈ 2.08 µM), the MIC ([1]; non-MDR n = 50, read-out: MAX (maximum MIC)) was 8 mg/L (≈ 16.6 µM) and the MIC50 ([1]; non-MDR n = 50) was 2 mg/L (≈ 4.15 µM). The MIC90 ([1]; non-MDR n = 50) was 4 mg/L (≈ 8.31 µM), the MIC ([1]; non-MDR n = 50, read-out: MIN (minimum MIC)) was 1 mg/L (≈ 2.08 µM) and the “MAX (maximum MIC; all strains inhibited)” value ([1]; MDR n = 50) was 4 mg/L. For the same molecule, the “MAX (maximum MIC; all strains inhibited)” value ([1]; all isolates n = 100) was 8 mg/L, the MIC ([2]; E. faecium IHMA N° 1764866) was no more than 0.03 mg/L and the MIC ([2]; E. faecium IHMA N° 1765436) was 0.06 mg/L (≈ 0.125 µM). It also gave an MIC ([2]; E. faecium IHMA N° 1765746) of no more than 0.03 mg/L, an MIC ([2]; E. faecium IHMA N° 1893573) of no more than 0.03 mg/L and an MIC ([2]; E. faecium IHMA N° 1893846) of 0.12 mg/L (≈ 0.249 µM). The MIC ([2]; E. faecium IHMA N° 1893942) was 0.06 mg/L (≈ 0.125 µM), the MIC ([2]; E. faecium IHMA N° 1894055) was 0.06 mg/L (≈ 0.125 µM) and the MIC ([2]; E. faecium IHMA N° 1897027) was 0.06 mg/L (≈ 0.125 µM). It also gave an MIC ([2]; E. faecium IHMA N° 1897101) of no more than 0.03 mg/L, an MIC ([2]; E. faecium IHMA N° 1904592) of no more than 0.03 mg/L and an MIC ([2]; E. faecium IHMA N° 2075051) of 0.06 mg/L (≈ 0.125 µM). The MIC ([2]; E. faecium IHMA N° 2077718) was no more than 0.03 mg/L, the MIC ([2]; E. faecium IHMA N° 2083787) was no more than 0.03 mg/L and the “Cumulative % at MIC” value ([2]; MIC 0.06 µg/mL) was 92.3%. The “Cumulative % at MIC” value ([2]; MIC […]) was 100.0%, the “Cumulative % at MIC” value ([2]; MIC ≤0.03 µg/mL) was 53.8% and the “MIC, all isolates” value ([2]; n = 13) was no more than 0.12 mg/L. The “No. of isolates at MIC” value [3] was 8 and 4, the “Cumulative % at MIC” value ([3]; MIC 0.06 µg/mL) was 100.0% and the “Cumulative % at MIC” value ([3]; MIC ≤0.03 µg/mL) was 66.7%. For the same molecule, the MIC ([3]; isolate IHMA 1123853) was no more than 0.03 mg/L, the MIC ([3]; isolate IHMA 1130935) was no more than 0.03 mg/L and the MIC ([3]; isolate IHMA 1130989) was 0.06 mg/L (≈ 0.125 µM). The MIC ([3]; isolate IHMA 1130991) was no more than 0.03 mg/L, the MIC ([3]; isolate IHMA 1137292) was 0.06 mg/L (≈ 0.125 µM) and the MIC ([3]; isolate IHMA 1145734) was no more than 0.03 mg/L. For the same molecule, the MIC ([3]; isolate IHMA 1145735) was no more than 0.03 mg/L, the MIC ([3]; isolate IHMA 1165897) was no more than 0.03 mg/L and the MIC ([3]; isolate IHMA 1194748) was no more than 0.03 mg/L. The MIC ([3]; isolate IHMA 1194750) was no more than 0.03 mg/L, the MIC ([3]; isolate IHMA 1546199) was 0.06 mg/L (≈ 0.125 µM) and the MIC ([3]; isolate IHMA 1546215) was 0.06 mg/L (≈ 0.125 µM). The “MIC, all isolates” value ([3]; n = 12) was no more than 0.06 mg/L, the MIC ([4]; QC strain S. pneumoniae ATCC 49619, test date 2021-11-26) was 0.25 mg/L (≈ 0.519 µM) and the MIC ([4]; Streptococcus pneumoniae, ATCC49619) was 0.25 mg/L (≈ 0.519 µM).
